Measurements as given in US8877967B2, “Compositions and methods for inhibition of cathepsins” (OXiGENE, Inc., priority 2012, dated 2014).

What was measured:
Format in all cases: biochemical
Human liver Cathepsin L = Human liver Cathepsin L (Homo sapiens (Human), UniProt P07711); assay: Cathepsin L inhibition, fluorometric Z-F-R-AMC assay; details: 1 nM cathepsin L, 50 μM Z-F-R-AMC, pH 5.5, 5 min preincubation, 25° C.
Method: Human liver Cathepsin L (Sigma) was preincubated with test compounds at various concentrations for 5 minutes at 25° C. The assay was initiated by addition of substrate Z-Phe-Arg-aminomethylcoumarin (“Z-F-R-AMC” Bacchem) and the final assay conditions were 1 nM cathepsin L, 50 μM Z-F-R-AMC, 100 mM sodium acetate pH 5.5, 1 mM EDTA (Omnipure), 3 mM DTT (EMD), 0.01% BRIJ 35 (Sigma), and 2.0% DMSO (Acros). Test compounds were serially diluted with DMSO and water to include a final concentration range of 10 μM to 10 pM. The reaction was monitored fluorometrically for 5 minutes at 25° C. using black 96-well Corning 3686 assay microplates with a Thermo Fluoroskan Ascent FL microplate reader at excitation and emission filter wavelengths of 355 nm and 460 nm, respectively. Data were analyzed to determine IC50 values utilizing GraphPad Prism 4.03 software with a minimum of a triplicate on the same microplate.

Human liver Cathepsin B = Human liver Cathepsin B (Homo sapiens (Human), UniProt P07858); assay: Cathepsin B inhibition, fluorometric Z-R-R-AMC assay; details: 1.1 nM cathepsin B, 60 μM Z-R-R-AMC, pH 6.0, 5 min preincubation, 37° C.
Method: Human liver Cathepsin B (Calbiochem) was pre-incubated with test compound at various concentrations for 5 minutes at 37° C. The assay was initiated by addition of substrate Z-Arg-Arg-aminomethylcoumarin (“Z-R-R-AMC” Bacchem) and the final assay conditions were 1.1 nM cathepsin B, 60 μM Z-R-R-AMC, 126 mM sodium potassium phosphate pH 6.0 (Fisher), 0.3 mM EDTA (Omnipure), 2.7 mM DTT (Omnipure), 0.004% BRIJ 35 (Sigma), and 2.0% DMSO (Acros) in a final volume of 200 μL. Test compounds were serially diluted with DMSO and 0.01% BRIJ 35 to include a final concentration range of 20 μM to 10 pM. The reaction was monitored fluorometrically for 5 minutes at 37° C. using black 96-well Corning 3686 assay microplates with a Thermo Fluoroskan Ascent FL microplate reader at excitation and emission filter wavelengths of 355 nm and 460 nm, respectively. Data were analyzed to determine IC50 values utilizing GraphPad Prism 4.03 software with a minimum of a triplicate on the same microplate.

[1] = target: Cathepsin K (activated recombinant human procathepsin K) (Homo sapiens (Human), UniProt P43235); assay: Cathepsin K inhibition, fluorometric Z-F-R-AMC assay; details: 1.5 nM cathepsin K, 50 μM Z-F-R-AMC, pH 5.5, 5 min preincubation, 25° C.
Sequence of Cathepsin K (activated recombinant human procathepsin K) (P43235 115-329): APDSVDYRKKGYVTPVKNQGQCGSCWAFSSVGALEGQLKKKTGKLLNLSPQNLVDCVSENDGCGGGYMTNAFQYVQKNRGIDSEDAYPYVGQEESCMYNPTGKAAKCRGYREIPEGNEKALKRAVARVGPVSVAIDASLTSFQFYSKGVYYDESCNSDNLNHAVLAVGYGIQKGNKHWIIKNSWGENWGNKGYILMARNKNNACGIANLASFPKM
Method: Recombinant human procathepsin K was obtained from Enzo Life Sciences. Activation of the proenzyme was performed in 32.5 mM sodium acetate pH 3.5, EDTA 1 mM, NaCl 500 mM, human procathepsin K 5.5 μM, at room temperature. Activation times were optimized and varied between 35 and 150 minutes. Cathepsin K was preincubated with test compounds at various concentrations for 5 minutes at 25° C. The assay was initiated by addition of substrate Z-Phe-Arg-aminomethylcoumarin (“Z-F-R-AMC” Bacchem) and the final assay conditions were 1.5 nM cathepsin K, 50 μM Z-F-R-AMC, 150 mM sodium acetate pH 5.5, 2.5 mM EDTA (Omnipure), 2.5 mM DTT (EMD), 0.01% BRIJ 35 (Sigma), and 4.0% DMSO (Acros). Test compounds were serially diluted with DMSO and water to include a final concentration range of 10 μM to 10 pM. The reaction was monitored fluorometrically for 5 minutes at 25° C. using black 96-well Corning 3686 assay microplates with a Thermo Fluoroskan Ascent FL microplate reader at excitation and emission filter wavelengths of 355 nm and 460 nm, respectively. Data were analyzed to determine IC50 values utilizing GraphPad Prism 4.03 software with a minimum of a triplicate on the same microplate.

Sequence of Human liver Cathepsin L (P07711 114-333): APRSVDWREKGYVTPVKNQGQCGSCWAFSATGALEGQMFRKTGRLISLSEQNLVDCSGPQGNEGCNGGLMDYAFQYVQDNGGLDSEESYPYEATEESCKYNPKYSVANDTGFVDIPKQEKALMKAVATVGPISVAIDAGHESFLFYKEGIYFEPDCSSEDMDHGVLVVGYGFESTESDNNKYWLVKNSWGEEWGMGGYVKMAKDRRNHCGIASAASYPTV

Row | Compound | IC50 (Human liver Cathepsin L) [nM] | IC50 (Human liver Cathepsin B) [nM] | IC50 [1] [nM]
1 | NC(=S)NN=C(c1cc(Br)cc(C(=O)c2ccccc2F)c1)c1ccccc1F [Compound 11, 1,3-bis(2-fluoro-benzoyl)-5-bromobenzene thiosemicarbazone] | 8.12 | > 10000 | –
2 | NC(=S)NN=C(c1ccccc1)c1cccc(C(=O)c2ccccc2)c1 [Compound 3, 3-benzoyl benzophenone thiosemicarbazone] | 10.5 | > 10000 | 17.4
3 | COc1ccc(C(=NNC(N)=S)c2cccc(C(=NNC(N)=S)c3ccc(OC)cc3)c2)cc1 [Compound 33, 1,3-bis-(4-methoxybenzoyl)benzene dithiosemicarbazone] | 587 | > 10000 | 2100
4 | CC(C)Oc1ccc(C(=O)c2cccc(C(=NNC(N)=S)c3ccc(OC(C)C)cc3)c2)cc1 [Compound 22, 1,3-bis-(4-isopropoxybenzoyl)benzene thiosemicarbazone] | > 10000 | > 10000 | –
5 | Cc1cccc(C(=O)c2cccc(C(=NNC(N)=S)c3cccc(C)c3)c2)c1 [Compound 9, 1-(3-methylbenzoyl),3-(3-methylbenzoyl)benzene thiosemicarbazone] | 7820 | – | 1030
6 | NC(=S)NN=C(c1ccccc1)c1cccc(C(O)c2ccccc2)c1 (stereo not drawn) [Compound 6, 3-Benzoyl benzhydrol thiosemicarbazone] | 23.8 | > 10000 | –
7 | NC(=S)NN=C(c1ccc(Br)cc1)c1cccc(C(=O)c2ccc(Br)cc2)c1 [Compound 24, 1,3-bis-(4-bromobenzoyl)benzene thiosemicarbazone] | > 10000 | > 10000 | > 10000
8 | NC(=S)NN=C(c1ccccc1)c1cc(C(=O)c2ccccc2)cc(C(=O)c2ccccc2)c1 [Compound 25, 1,3,5-Tribenzoyl benzene thiosemicarbazone] | 25 | – | 2800
9 | NC(=S)NN=C(c1ccc(F)cc1)c1cccc(C(=O)c2ccc(F)cc2)c1 [Compound 13, 1,3-bis-(4-fluorobenzoyl)benzene thiosemicarbazone] | 24.3 | > 10000 | 8500
10 | CC(C)Oc1ccc(C(=NNC(N)=S)c2cccc(C(=NNC(N)=S)c3ccc(OC(C)C)cc3)c2)cc1 [Compound 23, 1,3-bis-(4-isopropoxybenzoyl)benzene dithiosemicarbazone] | > 10000 | – | > 10000
